Columns and labels:
human GlyT-1B = target: T1, human GlyT-1B (Homo sapiens, UniProt P48067); assay: [3H]-glycine uptake into CHO cells expressing human GlyT-1B; type: cell-based
T1 construct: expressed in transfected cells; host or cells: CHO cells
T1 sequence (P48067 1-652 isoform P48067-3): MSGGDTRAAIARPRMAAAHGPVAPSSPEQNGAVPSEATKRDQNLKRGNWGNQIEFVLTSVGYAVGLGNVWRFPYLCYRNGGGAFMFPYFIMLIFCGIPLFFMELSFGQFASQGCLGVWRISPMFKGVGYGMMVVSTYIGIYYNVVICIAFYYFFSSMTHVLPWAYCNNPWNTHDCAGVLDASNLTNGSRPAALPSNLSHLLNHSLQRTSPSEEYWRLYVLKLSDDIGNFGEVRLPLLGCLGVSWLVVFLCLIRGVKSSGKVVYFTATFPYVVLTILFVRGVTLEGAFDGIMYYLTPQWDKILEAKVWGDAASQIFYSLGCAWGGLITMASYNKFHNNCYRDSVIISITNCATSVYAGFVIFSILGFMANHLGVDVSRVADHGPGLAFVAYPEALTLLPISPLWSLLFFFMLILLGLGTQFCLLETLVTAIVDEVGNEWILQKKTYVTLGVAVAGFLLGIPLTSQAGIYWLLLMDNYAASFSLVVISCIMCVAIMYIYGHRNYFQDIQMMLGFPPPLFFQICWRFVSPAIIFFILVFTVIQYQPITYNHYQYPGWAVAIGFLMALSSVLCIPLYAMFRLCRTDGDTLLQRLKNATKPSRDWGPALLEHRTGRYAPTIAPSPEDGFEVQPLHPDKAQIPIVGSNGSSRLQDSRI
Protocol: Measurements of [^3H]-glycine uptake into CHO cells expressing human GlyT-1B were performed in 96 well plates using 1 μCi [^3H]-glycine/well. Cells were plated 2 days before the experiment and washed twice with assay buffer (composition: 150 mM NaCl, 10 mM glucose, 2.5 mM KCl, 1 mM CaCl2, 2.5 mM MgSO4, 10 mM HEPES, pH 7.4). Test compounds were added 10 min before radioligand and cells were incubated for a further 15 min at 37° C. Cells were washed as described for [3 H]-D-serine uptake into asc-1 cells. Non-specific uptake was defined as uptake in the presence of 100 μM N-methyl-N-(phenyl-trifluoromethylphenoxy)propan-1-yl-glycine.

System A transporters = conditions: at 5 mM; cultured rat hepatocytes; cited from earlier work

**Q.** With `CSCC(N)C(=O)O` (stereo in doubt) [(S)-methyl-L-cysteine] as the molecule, how does the Ki (human GlyT-1B) read?
**A.** Its Ki is over 100 µM.

**Q.** And the “inhibition of System A transporters ([3H]AIB transport)” value (System A transporters)?
**A.** Its value is 81%.
